Data published in PubChem BioAssay (NCI).
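Exposure lasted 48 hours, with cells grown in 96-well plates and compounds tested at five concentrations. At the TGI there is no net growth.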

How the values were obtained:
Test in all cases: NCI tumour cell line growth inhibition, 48 h
BT-549 breast = tested on: BT-549 breast
HCC-2998 colon = tested on: HCC-2998 colon
HOP-18 NSCLC = tested on: HOP-18 NSCLC
A498 renal = tested on: A498 renal
K-562 leukemia = tested on: K-562 leukemia
MDA-MB-231 breast = tested on: MDA-MB-231 breast
COLO 205 colon = tested on: COLO 205 colon
SR leukemia = tested on: SR leukemia
SN12K1 renal = tested on: SN12K1 renal
SK-MEL-5 melanoma = tested on: SK-MEL-5 melanoma
XF 498 CNS = tested on: XF 498 CNS
RPMI-8226 leukemia = tested on: RPMI-8226 leukemia
SF-268 CNS = tested on: SF-268 CNS
RXF 393 renal = tested on: RXF 393 renal
SNB-19 CNS = tested on: SNB-19 CNS
DMS 114 small cell lung = tested on: DMS 114 small cell lung
SN12C renal = tested on: SN12C renal
OVCAR-3 ovarian = tested on: OVCAR-3 ovarian
ACHN renal = tested on: ACHN renal
HL-60(TB) leukemia = tested on: HL-60(TB) leukemia
EKVX NSCLC = tested on: EKVX NSCLC
OVCAR-4 ovarian = tested on: OVCAR-4 ovarian
KM12 colon = tested on: KM12 colon
SW-620 colon = tested on: SW-620 colon
DLD-1 colon = tested on: DLD-1 colon
CAKI-1 renal = tested on: CAKI-1 renal
MCF7 breast = tested on: MCF7 breast
NCI-H522 lung = tested on: NCI-H522 lung
HOP-92 NSCLC = tested on: HOP-92 NSCLC
MDA-N = tested on: MDA-N
MALME-3M melanoma = tested on: MALME-3M melanoma
U251 CNS = tested on: U251 CNS
HS 578T breast = tested on: HS 578T breast
DU-145 prostate = tested on: DU-145 prostate
SF-295 CNS = tested on: SF-295 CNS
M14 melanoma = tested on: M14 melanoma
SF-539 CNS = tested on: SF-539 CNS
UACC-62 melanoma = tested on: UACC-62 melanoma
MOLT-4 leukemia = tested on: MOLT-4 leukemia
PC-3 prostate = tested on: PC-3 prostate
UACC-257 melanoma = tested on: UACC-257 melanoma
HCT-15 colon = tested on: HCT-15 colon
P388/ADR leukemia = tested on: P388/ADR leukemia
NCI/ADR-RES ovarian = tested on: NCI/ADR-RES ovarian
SK-MEL-28 melanoma = tested on: SK-MEL-28 melanoma
SNB-78 CNS = tested on: SNB-78 CNS
T-47D breast = tested on: T-47D breast
DMS 273 small cell lung = tested on: DMS 273 small cell lung
M19-MEL melanoma = tested on: M19-MEL melanoma
786-0 renal = tested on: 786-0 renal
IGROV1 ovarian = tested on: IGROV1 ovarian
OVCAR-8 ovarian = tested on: OVCAR-8 ovarian
A549 NSCLC = tested on: A549 NSCLC
HOP-62 NSCLC = tested on: HOP-62 NSCLC
LOX IMVI melanoma = tested on: LOX IMVI melanoma
SK-OV-3 ovarian = tested on: SK-OV-3 ovarian
NCI-H226 lung = tested on: NCI-H226 lung
SK-MEL-2 melanoma = tested on: SK-MEL-2 melanoma
TK-10 renal = tested on: TK-10 renal
NCI-H460 lung = tested on: NCI-H460 lung
SNB-75 CNS = tested on: SNB-75 CNS
MDA-MB-435 = tested on: MDA-MB-435
P388 leukemia = tested on: P388 leukemia
UO-31 renal = tested on: UO-31 renal
NCI-H23 lung = tested on: NCI-H23 lung
CCRF-CEM leukemia = tested on: CCRF-CEM leukemia
KM20L2 colon = tested on: KM20L2 colon
HT29 colon = tested on: HT29 colon
HCT-116 colon = tested on: HCT-116 colon
OVCAR-5 ovarian = tested on: OVCAR-5 ovarian

CN1c2c(nc(N)[nH]c2=O)NCC1CCNc1ccc(C(=O)NC(CCC(=O)O)C(=O)O)cc1 (stereo not given)
TGI (BT-549 breast): 2750 µM | TGI (HCC-2998 colon): 2080 µM | TGI (HOP-18 NSCLC): 2950 µM | TGI (A498 renal): 2820 µM | TGI (K-562 leukemia): 841 µM | TGI (MDA-MB-231 breast): 3050 µM | TGI (COLO 205 colon): 2750 µM | TGI (SR leukemia): 2530 µM | TGI (SN12K1 renal): 1810 µM | TGI (SK-MEL-5 melanoma): 2470 µM | TGI (XF 498 CNS): 2150 µM | TGI (RPMI-8226 leukemia): 2930 µM | TGI (SF-268 CNS): 2710 µM | TGI (RXF 393 renal): 2490 µM | TGI (SNB-19 CNS): 3250 µM | TGI (DMS 114 small cell lung): 1770 µM | TGI (SN12C renal): 2350 µM | TGI (OVCAR-3 ovarian): 2460 µM | TGI (ACHN renal): 2000 µM | TGI (HL-60(TB) leukemia): 2250 µM | TGI (EKVX NSCLC): 2720 µM | TGI (OVCAR-4 ovarian): 2400 µM | TGI (KM12 colon): 2220 µM | TGI (SW-620 colon): 1810 µM | TGI (DLD-1 colon): 2350 µM | TGI (CAKI-1 renal): 1290 µM | TGI (MCF7 breast): 2030 µM | TGI (NCI-H522 lung): 2470 µM | TGI (HOP-92 NSCLC): 2900 µM | TGI (MDA-N): 430 µM | TGI (MALME-3M melanoma): 2770 µM | TGI (U251 CNS): 2080 µM | TGI (HS 578T breast): 5910 µM | TGI (DU-145 prostate): 2660 µM | TGI (SF-295 CNS): 2260 µM | TGI (M14 melanoma): 1770 µM | TGI (SF-539 CNS): 2190 µM | TGI (UACC-62 melanoma): 1650 µM | TGI (MOLT-4 leukemia): 2650 µM | TGI (PC-3 prostate): 1750 µM | TGI (UACC-257 melanoma): 2360 µM | TGI (HCT-15 colon): 3010 µM | TGI (P388/ADR leukemia): 1410 µM | TGI (NCI/ADR-RES ovarian): 3810 µM | TGI (SK-MEL-28 melanoma): 2290 µM | TGI (SNB-78 CNS): 2660 µM | TGI (T-47D breast): 4260 µM | TGI (DMS 273 small cell lung): 1560 µM | TGI (M19-MEL melanoma): 778 µM | TGI (786-0 renal): 1840 µM | TGI (IGROV1 ovarian): 2470 µM | TGI (OVCAR-8 ovarian): 2640 µM | TGI (A549 NSCLC): 2620 µM | TGI (HOP-62 NSCLC): 1930 µM | TGI (LOX IMVI melanoma): 783 µM | TGI (SK-OV-3 ovarian): 2350 µM | TGI (NCI-H226 lung): 3050 µM | TGI (SK-MEL-2 melanoma): 3050 µM | TGI (TK-10 renal): 2500 µM | TGI (NCI-H460 lung): 1570 µM | TGI (SNB-75 CNS): 2660 µM | TGI (MDA-MB-435): 1770 µM | TGI (P388 leukemia): 651 µM | TGI (UO-31 renal): 2590 µM | TGI (NCI-H23 lung): 3630 µM | TGI (CCRF-CEM leukemia): 1000 µM | TGI (KM20L2 colon): 2280 µM | TGI (HT29 colon): 1310 µM | TGI (HCT-116 colon): 1390 µM | TGI (OVCAR-5 ovarian): 2880 µM
